Laboratory results published in PMC7411735, “New Terpendole Congeners, Inhibitors of Sterol O-Acyltransferase, Produced by Volutella citrinella BF-0440” (Molecules, 2020).
Where two headings read alike, the source gives them in different places.

What was measured:
human SOAT1 = target: T1, human SOAT1 (Homo sapiens, UniProt P35610); assay: SOAT1 activity in SOAT1-CHO cells ([14C]CE formation from [1-14C]oleic acid); assay type: cell-based; conditions: for IC50: n ≧ 3
T1 construct: expressed in transfected cells; host or cells: CHO AC29 (SOAT-deficient) cells
T1 sequence (P35610 1-550): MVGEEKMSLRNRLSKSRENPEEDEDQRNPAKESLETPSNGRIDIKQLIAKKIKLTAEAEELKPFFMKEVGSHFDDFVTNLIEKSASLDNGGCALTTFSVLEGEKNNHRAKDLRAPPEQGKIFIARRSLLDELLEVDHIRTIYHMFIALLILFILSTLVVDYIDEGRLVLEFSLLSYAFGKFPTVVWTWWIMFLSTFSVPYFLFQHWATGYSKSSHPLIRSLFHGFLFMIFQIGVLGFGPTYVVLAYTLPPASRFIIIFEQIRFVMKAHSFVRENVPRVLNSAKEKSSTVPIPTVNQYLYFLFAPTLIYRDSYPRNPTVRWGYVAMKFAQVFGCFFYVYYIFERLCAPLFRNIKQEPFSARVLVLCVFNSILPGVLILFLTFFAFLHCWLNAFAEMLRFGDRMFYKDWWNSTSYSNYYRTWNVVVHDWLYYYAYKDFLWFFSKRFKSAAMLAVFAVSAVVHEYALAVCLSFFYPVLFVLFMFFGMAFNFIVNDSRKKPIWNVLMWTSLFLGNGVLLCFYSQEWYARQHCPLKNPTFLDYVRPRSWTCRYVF
Experimental: (§1) CHO cells (AC29 cells, SOAT-deficient cells) expressing the SOAT1 or SOAT2 genes from human were cultured using a previously described method [17].
(§2) Assays for human SOAT1 and SOAT2 activities using SOAT1- and SOAT2-CHO cells were performed using our established method [11, 17]. […] At least 80% confluent cells were used for assays. […] After a 6-h incubation at 37 °C in 5% CO2, medium was removed, and the cells in each well were washed twice with PBS. Cells were lysed by adding 0.25 mL of 10 mM Tris-HCl (pH 7.5) containing 0.1% (w/v) sodium dodecyl sulfate, and [^14C]CE was analyzed using a FLA-7000 analyzer (Fuji Film). In this cell-based assay, [^14C]CE was produced by the reaction of SOAT1 or SOAT2. SOAT inhibitory activity (%) is defined as ([1-^14C]CE-drug/[^14C]CE-control) × 100.

human SOAT2 [1] = target: T2, human SOAT2 (Homo sapiens, UniProt O75908); assay: SOAT2 activity in SOAT2-CHO cells ([14C]CE formation from [1-14C]oleic acid); assay type: cell-based; conditions: for IC50: n ≧ 3
T2 construct: expressed in transfected cells; host or cells: CHO AC29 (SOAT-deficient) cells
T2 sequence (O75908 1-522): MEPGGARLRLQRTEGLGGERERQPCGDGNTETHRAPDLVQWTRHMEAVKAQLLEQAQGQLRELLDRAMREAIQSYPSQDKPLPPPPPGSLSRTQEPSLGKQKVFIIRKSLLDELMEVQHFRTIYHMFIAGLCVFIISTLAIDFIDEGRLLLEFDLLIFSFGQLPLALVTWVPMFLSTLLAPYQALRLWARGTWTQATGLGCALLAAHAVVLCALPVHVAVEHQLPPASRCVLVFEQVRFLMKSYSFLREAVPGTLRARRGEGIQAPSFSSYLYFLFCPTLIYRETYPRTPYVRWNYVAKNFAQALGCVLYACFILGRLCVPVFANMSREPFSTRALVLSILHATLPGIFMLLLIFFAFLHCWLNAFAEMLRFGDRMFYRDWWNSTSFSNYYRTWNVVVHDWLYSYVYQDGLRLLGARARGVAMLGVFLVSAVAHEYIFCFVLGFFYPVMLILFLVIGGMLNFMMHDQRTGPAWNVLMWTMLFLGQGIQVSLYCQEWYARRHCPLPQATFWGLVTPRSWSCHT
Experimental: as §1, §2

human SOAT2 [2] = assay: as above; assay type: cell-based; conditions: classified by SI
Experimental: as §1, §2

human SOAT2 [3] = test system: human SOAT2; set-up: method as in PMID 32467602; conditions: classified by SI; cited from earlier work
human SOAT2 [4] = target: T2, human SOAT2; set-up: method as in PMID 32467602; conditions: SOAT2-CHO cells; cited from earlier work
[5] = test system: African green monkey SOAT1; set-up: method as in PMID 16629409; conditions: African green monkey SOAT1-CHO cells; cited from earlier work
[6] = test system: African green monkey SOAT2; set-up: method as in PMID 16629409; conditions: cited from earlier work
SOAT2 = test system: SOAT2; set-up: method as in PMID 17390588; conditions: cited from earlier work
[7] = IC50 SOAT1, human SOAT1-CHO cells
[8] = IC50 SOAT2, human SOAT2-CHO cells
[9] = SAR comparison: 4 vs 6 (R5), 8 vs 11 (R6)

Compound: CC(C)=CC1OC2C(OC3CCC4(C)C(C)(O)C(CC5(O)C(=O)Nc6cccc(CC7OC7(C)C)c65)CCC4(O)C34OC24)C(C)(C)O1 (stereo not shown) [Compound 1, Terpendole N]
- IC50 (human SOAT1; read-out: IC50 SOAT1, human SOAT1-CHO cells): > 14 µM
- IC50 (human SOAT2 [1]; read-out: IC50 SOAT2, human SOAT2-CHO cells): > 14 µM

Compound: CC(C)=C[C@H]1O[C@H]2[C@H]3O[C@@]34[C@H](CC[C@@]3(C)[C@@]4(O)CC[C@H]4Cc5c([nH]c6cccc(CC7OC7(C)C)c56)[C@@]43C)O[C@@H]2C(C)(C)O1 (stereo partly shown) [Compound 2, terpendole O]
- IC50 (human SOAT1; [7]): 2.8 µM
- IC50 (human SOAT2 [1]; [8]): 2.4 µM
- Type of inhibitors (human SOAT2 [2]): dual (Dual with -1.0 < SI < +1.0)

Compound: CC(C)=CCOC(C)(C)[C@H]1O[C@H]2CC[C@@]3(C)[C@]4(O[C@H]4C[C@H]4Cc5c([nH]c6ccccc56)[C@@]43C)[C@]23O[C@@H]3[C@@H]1O [Compound 3, terpendole P]
- IC50 (human SOAT1; [7]): 5.9 µM
- IC50 (human SOAT2 [1]; [8]): 6.9 µM
- Type of inhibitors (human SOAT2 [2]): dual (Dual with -1.0 < SI < +1.0)

Compound: CC(C)=C[C@H]1O[C@H]2[C@H]3O[C@@]34[C@H](CC[C@@]3(C)[C@@]4(O)CC[C@H]4C[C@@]5(O)c6c(CC7OC7(C)C)cccc6N[C@@]5(O)[C@@]43C)O[C@@H]2C(C)(C)O1 (stereo partly shown) [Compound 4, voluhemin A]
- enhancement of SOAT1 inhibitory activity relative to comparison compound (human SOAT1; [9]): approximately 10 fold
- enhancement of SOAT2 inhibitory activity relative to comparison compound (human SOAT2 [1]; [9]): approximately 10 fold
- Type of inhibitors (human SOAT2 [3]): dual (Dual with -1.0 < SI < +1.0)

Compound: CC(C)=C[C@H]1O[C@H]2[C@H]3O[C@@]34[C@@H](O[C@@H]2C(C)(C)O1)[C@H](O)C[C@@]1(C)[C@@]4(O)CC[C@H]2C[C@@]3(O)c4c(CC5OC5(C)C)cccc4N[C@@]3(O)[C@@]21C (stereo partly shown) [Compound 6, NK12838]
- IC50 (human SOAT2 [4]): 3.5 µM
- Type of inhibitors (human SOAT2 [3]): dual (Dual with -1.0 < SI < +1.0)

Compound: CC(C)=C[C@H]1O[C@H]2[C@H]3O[C@@]34[C@H](CC[C@@]3(C)[C@@]4(O)CC[C@H]4Cc5c([nH]c6ccccc56)[C@@]43C)O[C@@H]2C(C)(C)O1 [Compound 7, terpendole C]
- IC50 (human SOAT1; [7]): 2 µM
- IC50 (human SOAT2 [1]; [8]): 2.2 µM
- Type of inhibitors (human SOAT2 [2]): dual (Dual with -1.0 < SI < +1.0)

Compound: CC(C)=CCOC(C)(C)[C@H]1O[C@H]2CC[C@@]3(C)[C@@H](CC[C@H]4Cc5c([nH]c6ccccc56)[C@@]43C)[C@]23O[C@@H]3[C@@H]1O [Compound 8, terpendole D]
- IC50 (human SOAT1; [7]): 0.8 µM
- IC50 (human SOAT2 [1]; [8]): 2.1 µM
- Type of inhibitors (human SOAT2 [2]): dual (Dual with -1.0 < SI < +1.0)

Compound: CC(C)=CCc1cccc2[nH]c3c(c12)C[C@@H]1CC[C@@]2(O)[C@@]45O[C@@H]4[C@@H]4O[C@H](C=C(C)C)OC(C)(C)[C@H]4O[C@H]5CC[C@]2(C)[C@@]31C [Compound 9, terpendole L]
- IC50 (human SOAT1; [7]): 6.8 µM
- IC50 (human SOAT2 [1]; [8]): 1.8 µM
- Type of inhibitors (human SOAT2 [2]): dual (Dual with -1.0 < SI < +1.0)

Compound: CC(C)=CCc1cccc2[nH]c3c(c12)C[C@@H]1CC[C@@]2(O)[C@@]45O[C@@H]4[C@H](O)[C@@H](C(C)(C)O)O[C@H]5CC[C@]2(C)[C@@]31C [Compound 10, tolypocladin A]
- IC50 (human SOAT1; human SOAT1-CHO cells, read-out: IC50 SOAT1): > 18 µM
- IC50 (human SOAT2 [1]; human SOAT2-CHO cells, read-out: IC50 SOAT2): > 18 µM

Compound: CC(C)=CCOC(C)(C)[C@H]1O[C@H]2CC[C@@]3(C)[C@@](O)(CC[C@H]4Cc5c([nH]c6ccccc56)[C@@]43C)[C@]23O[C@@H]3[C@@H]1O [Compound 11, terpendole J]
- IC50 (human SOAT1; [7]): 18.6 µM
- IC50 (human SOAT2 [1]; [8]): 10.7 µM
- Type of inhibitors (human SOAT2 [2]): dual (Dual with -1.0 < SI < +1.0)

Compound: CC(C)=CCc1c([C@H](O)C2OC2(C)C)ccc2[nH]c3c(c12)C[C@@H]1CC[C@@]2(O)C(C)(C)C(=O)CC[C@]2(C)[C@@]31C (stereo partly shown) [Compound 12, sespendole]
- IC50 [5]: 12 µM
- IC50 ([6]; African green monkey SOAT2-CHO cells): 6.5 µM
- Type of inhibitors ([6]; classified by SI, African green monkey SOAT1 and SOAT2-CHO cells): dual (Dual with -1.0 < SI < +1.0)

Compound: pyripyropene A
- SOAT isozyme selectivity (SOAT2): highly selective SOAT2 inhibitor
